Experiments:
[1] = mouse, in vivo
Experimental: (§1) After 5 minutes, 15 minutes, 30 minutes, 60 minutes, and 120 minutes from the administration, organs were dissected out of the mice (n=5).
as §1
(§2) (IB-PEG3)12-Ex4 (0.77 μCi) was administered to unanesthetized 6-week-old ddY mice (male, weight: 30 g) by intravenous injection (through the tail vein). After 5 minutes, 15 minutes, 30 minutes, 60 minutes, and 120 minutes from the administration, organs were dissected out of the mice (n=5). The weight and the radioactivity of each organ were determined, and an accumulation amount (% dose/g) of (IB-PEG3)12-Ex4 was calculated from the radioactivity per unit weight.
as §1
as §2, with “(FB-PEG3)12-Ex4 (5” for “(IB-PEG3)12-Ex4 (0.77”, “(FB-PEG3)12-Ex4” for “(IB-PEG3)12-Ex4”
as §2, with “(IB-ePEG12)12-Ex4 (0.21” for “(IB-PEG3)12-Ex4 (0.77”, “(IB-ePEG12)12-Ex4” for “(IB-PEG3)12-Ex4”

pancreatic β-cells = assay: Two-dimensional imaging analysis (fluorescence and autoradiography) of pancreas sections; type: in vivo, MIP-GFP mouse; details: without blocking
Experimental: (IB-PEG3)12-Ex4 (5.6 μCi/100 μl) was administered to an unanesthetized MIP-GFP mouse (male, weight: 20 g) by intravenous injection, and after 30 minutes from the administration, the pancreas was dissected out of the mouse (n=1). Sections were cut out of the dissected pancreas, and each section was placed on a slide glass, covered with a cover glass. The fluorescence and the radioactivity (autoradiography) of each section were determined using an image analyzer (trade name: Typhoon 9410, manufactured by GE Health Care Inc.) (exposure time 24 hours).
Sections were cut out of the dissected pancreas, and each section was placed on a slide glass, covered with a cover glass. The fluorescence and the radioactivity (autoradiography) of each section were determined using an image analyzer (trade name: Typhoon 9410, manufactured by GE Health Care Inc.) (exposure time 48 hours).
Other than these, the fluorescence and the radioactivity were determined in the same manner as above.
(FB-PEG3)12-Ex4 (292 μCi/220 μl) was administered to an unanesthetized MIP-GFP mouse (male, weight: 20 g) by intravenous injection, and after 15 minutes from the administration, the pancreas was dissected out of the mouse (n=1). Sections were cut out of the dissected pancreas, and each section was placed on a slide glass, covered with a cover glass. […]

Row | Substance | accumulation in the pancreas [1] | radioactive accumulation in the bone [1] | ratio of pancreas/blood [1] | ratio of pancreas/liver [1] | localization of the radioactivity signal versus GFP signal in pancreas sections (pancreatic β-cells)
1 | (FB-PEG3)12-Ex4 | exceeding 15 % dose/g | small | greater than 5 | greater than 10 | substantially consistent with that of the GFP signal
2 | (IB-PEG3)12-Ex4 | exceeding 25 % dose/g | – | greater than 5 | greater than 10 | substantially consistent with that of the GFP signal
3 | (IB-ePEG12)12-Ex4 | exceeding 25 % dose/g | – | greater than 5 | greater than 10 | –

From US9278146B2, “Peptide derivative and use of the same” (priority 2010, dated 2016)
